From US20240417410A1, “TRICYCLIC COMPOUNDS FOR THE TREATMENT OF CANCER” (Hoffmann-La Roche Inc., priority 2023, published 2024) come the findings set out here.

In one assay the target is KRAS G12C-BRAF complex (Homo sapiens (Human), UniProt P01116+P62937, G12C). Nature of the assay: KRAS-BRAF with CYPA (500 nM) interaction assay (TR-FRET, Example 136). The conditions noted are these: KRAS G12C-BRAF disruption. It counts as biochemical. The method, then: In this example, TR-FRET was also used to measure the compound or compound-CYPA dependent disruption of the KRAS G12C-BRAF complex. This protocol was also used to measure disruption of KRAS G12D or KRAS G12V binding to BRAF by a compound of the invention, respectively. In assay buffer containing 25 mM HEPES PH=7.4 (4-(2-hydroxyethyl)-1-piperazineethanesulfonic acid, Thermo, 15630080), 0.002% Tween20, 0.1% BSA, 100 mM NaCl, 5 mM MgCl2, 10 μM GMPPNP (Guanosine 5′-[β,γ-imido]triphosphate trisodium salt hydrate, Sigma, G0635), […] 384-well assay plate at final concentrations of 50 nM, 6.25 nM and 1 nM, respectively. Compound was present in plate wells as a 16-point 3-fold dilution series starting at a final concentration of 10 μM and incubated for 3 hours. A mixture of MAb Anti-6His-XL665 (Cisbio, 61HISXLB) and Mab anti-GST-TB cryptate (Cisbio, 61GSTTLB) was then added at a final concentration of 6.67 nM and 0.21 nM, respectively, and the plate was incubated for an additional 1.5 hours. TR-FRET signal was read on a PHERstar FSX microplate reader (Ex320 nm, Em 665/615 nm). Compounds that facilitate disruption of the KRAS-BRAF complex were identified as those eliciting a decrease in the TR-FRET ratio relative to DMSO control wells.

In assay [1] the test system is phosphorylation of ERK, KRAS G12C in NCI-H358 cells. Nature of the assay: pERK inhibition assay. The assay is classed as cell-based. The conditions noted are these: Homo sapiens, NCI-H358, 4 h. The method, then: (§1) This assay is to measure the ability of test compounds in inhibiting the phosphorylation of ERK, the downstream signaling of KRAS G12C in NCI-H358 cells, KRAS G12D in AGS cells, and KRAS G12V in SW620. NCI-H358 (ATCC-CRL5807) cells, AGS (ATCC-CRL-1739) cells, SW620 (ATCC-CCL-227) cells were all grown and maintained using RPMI-1640 medium (Thermo Fisher Scientific) with 10% fetal bovine serum and 1% penicillin/streptomycin. On the day prior to compound addition, cells were plated in tissue culture-treated 96 well plates (Corning-3699) at a density of 30,000 cell/well, 20,000 cell/well, 30,000 cell/well for NCI-H358, AGS and SW620 respectively, and allowed for attachment overnight. Diluted compounds were then added in a final concentration of 0.5% DMSO. After 4 hours of incubation, the medium was removed, 100 μL of 4% formaldehyde was added, and the assay plates were incubated at room temperature for 20 minutes. The plates were then washed once with phosphate buffered saline (PBS), and permeabilized with 100 μL of chilled methanol for 10 minutes. Non-specific antibody binding to the plates was blocked using 50 μL 1X BSA blocking buffer (Thermo-37520, 10-fold dilution by Phosphate-Buffered Saline Tween (PBST) for at least 1 hour at room temperature.
(§2) The amount of phosphor-ERK was determined using an antibody specific for phosphorylated form of ERK. Primary antibody (PERK, CST-4370, Cell Signaling Technology) was diluted 1:300 in blocking buffer, with 50 μL aliquoted to each well, and incubated overnight at 4° C. Cells was washed five times for 5 minutes with PBST. Secondary antibody (HRP-linked anti-rabbit IgG, CST-7074, Cell Signaling Technology) was diluted 1:1000 in blocking buffer, and 50 μL was added to each well and incubated 1-2 hrs at room temperature. Cells was washed […] for 5 minutes with PBST, 100 μL TMB ELISA substrate (abcam-ab171523) were added and gently shake for 20 minutes. 50 μL stop solution (abcam-ab 171529) were added, and then read the signal (OD450) by EnVision.
(§3) IC50 was determined by fitting a 4-parameter sigmoidal concentration response model.

For assay [2], the system named is phosphorylation of ERK, KRAS G12V in SW620. Put plainly: pERK inhibition assay. It counts as cell-based. The following applies: Homo sapiens, SW-620, 4 h, SW620 cells. The method, then:
as §1, §2, §3

Assay [3] relates to phosphorylation of ERK, KRAS G12D in AGS cells. Put plainly: pERK inhibition assay. The assay is classed as cell-based. The conditions noted are these: Homo sapiens, AGS, 4 h. The protocol: as §1, §2, §3
For assay [4], the system named is NCI-H358 cells (KRAS G12C). Nature of the assay: Cell viability assay (Cell Counting Kit-8, 3-day). The assay is classed as cell-based, human. The conditions noted are these: Homo sapiens, NCI-H358, 72 h, NCI-H358, 72 hrs incubation. The protocol: (§4) The purpose of this cellular assay was to determine the effects of test compounds on the proliferation of human cancer cell lines NCI-H358 (ATCC-CRL5807) cells, AGS (ATCC-CRL-1739) cells, SW620 (ATCC-CCL-227) over a 3-day treatment period by quantifying the amount of NADPH present at endpoint using Cell Counting Kit-8.
(§5) Cells were seeded at 5,000 cells/well (NCI-H358), 2,000 cells/well (AGS) 2,000 cells/well (SW620) in 96-well assay plates (Corning-3699) and incubated overnight. On the day of the assay, diluted compounds were then added in a final concentration of 0.5% DMSO. After 72 hrs incubation, a tenth of the volume of cell counting kit 8 (Dnjindo-CK04) was added into each well. Read the signal (OD450 minus OD650) using EnVision after 2 hrs incubation. IC50 was determined by fitting a 4-parameter sigmoidal concentration response model.

The next assay has as its system AGS cells (KRAS G12D). Nature of the assay: Cell viability assay (Cell Counting Kit-8, 3-day). The assay is classed as cell-based, human. The conditions noted are these: Homo sapiens, 72 h, 72 hrs incubation. The method, then:
as §4, §5

The next assay concerns SW620 cells (KRAS G12V). Put plainly: Cell viability assay (Cell Counting Kit-8, 3-day). The assay is classed as cell-based, human. The conditions noted are these: Homo sapiens, SW-620; SW620, 72 hrs incubation. The protocol: as §4, §5

Sequence of KRAS G12C-BRAF complex (P01116-2 other isoform, or with tags, fused parts or gaps G12C): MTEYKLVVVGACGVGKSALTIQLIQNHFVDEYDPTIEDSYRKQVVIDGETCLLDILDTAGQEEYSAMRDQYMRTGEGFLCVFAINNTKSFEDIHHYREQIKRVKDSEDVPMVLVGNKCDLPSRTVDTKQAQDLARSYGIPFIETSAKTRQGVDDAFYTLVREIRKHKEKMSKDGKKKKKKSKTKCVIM
Sequence of KRAS G12C-BRAF complex (P62937 whole entry): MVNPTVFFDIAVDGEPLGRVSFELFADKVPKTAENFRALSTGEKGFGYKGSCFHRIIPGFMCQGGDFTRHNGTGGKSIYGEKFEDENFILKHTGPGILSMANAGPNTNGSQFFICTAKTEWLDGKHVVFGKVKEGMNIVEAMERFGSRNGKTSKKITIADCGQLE

Regarding `CO[C@@H](C)c1ncc(N2CCN(C)CC2)cc1-c1c2c3cc(cc4c3n1CCC4)-c1csc(n1)C[C@H](NC(=O)C1CCOCC1)C(=O)N1CCC[C@H](N1)C(=O)OCC(C)(C)C2` (atropisomer, axis not shown; (M)) [Example 77, N-[(7S,13S)-(20M)-20-[2-[(1S)-1-methoxyethyl]-5-(4-methylpiperazin-1-yl)-3-pyridyl]-17,17-dimethyl-8,14-dioxo-15-oxa-4-thia-9,21,30,31-tetrazahexacyclo[23.3.1.1^2,5.1^9,13.0^19,27.0^21,26]hentriaconta-1 (28),2,5 (31),19,25 (29),26-hexaen-7-yl]tetrahydropyran-4-carboxamide], the IC50 against KRAS G12C-BRAF complex worked out at 41.8 nM; in assay [1], 4.4 nM; in assay [2], 4 nM; in assay [3], 26.1 nM.
With `CO[C@@H](C)c1ncc(N2CCN(C)CC2)cc1-c1c2c3cc(cc4c3n1CCC4)-c1csc(n1)C[C@H](NC(=O)C13C4CC1CC3C4)C(=O)N1CCC[C@H](N1)C(=O)OCC(C)(C)C2` (stereo partly drawn) [Example 72, N-[(7S,13S)-(20M)-20-[2-[(1S)-1-methoxyethyl]-5-(4-methylpiperazin-1-yl)-3-pyridyl]-17,17-dimethyl-8,14-dioxo-15-oxa-4-thia-9,21,30,31-tetrazahexacyclo[23.3.1.1^2,5.1^9,13.0^19,27.0^21,26]hentriaconta-1 (28),2,5 (31), 19,25 (29),26-hexaen-7-yl]tricyclo[3.1.1.0^3,6]heptane-6-carboxamide], the IC50 at KRAS G12C-BRAF complex was found to be 31.5 nM; in assay [1], 2.3 nM; in assay [2] it was 4.8 nM; in assay [3], 41.5 nM.
Take `CO[C@@H](C)c1ncc(N2CCN(CC(F)(F)F)CC2)cc1-c1c2c3cc(cc4c3n1CCO4)-c1csc(n1)C[C@H](NC(=O)[C@H]1C[C@@H]1c1ccccc1)C(=O)N1CCC[C@H](N1)C(=O)OCC(C)(C)C2` (atropisomer, axis not shown; (M)) [Example 44, (1S,2S)-N-[(7S,13S)-(20M)-20-[2-[(1S)-1-methoxyethyl]-5-[4-(2,2,2-trifluoroethyl)piperazin-1-yl]-3-pyridyl]-17,17-dimethyl-8,14-dioxo-15,24-dioxa-4-thia-9,21,30,31-tetrazahexacyclo[23.3.1.1^2,5.1^9,13.0^19,27.0^21,26]hentriaconta-1 (29),2,5 (31),19,25,27-hexaen-7-yl]-2-phenyl-cyclopropanecarboxamide]: the IC50 in assay [1] is 2.1 nM; in assay [2], 1.4 nM; in assay [3], 9.1 nM; in assay [4], 16.8 nM; in the assay on AGS cells (KRAS G12D), 33.9 nM; in the assay on SW620 cells (KRAS G12V), 3.1 nM.
Take `CO[C@@H](C)c1ncc(N2CCN(C)CC2)cc1-c1c2c3cc(cc4c3n1CCC4)-c1csc(n1)C[C@H](NC(=O)[C@@H]1C[C@H]1c1ccncc1)C(=O)N1CCC[C@H](N1)C(=O)OCC(C)(C)C2` [Example 58, (1R,2R)-N-[(7S,13S)-(20M)-20-[2-[(1S)-1-methoxyethyl]-5-(4-methylpiperazin-1-yl)-3-pyridyl]-17,17-dimethyl-8,14-dioxo-15-oxa-4-thia-9,21,30,31-tetrazahexacyclo[23.3.1.1^2,5.1^9,13.0^19,27.0^21,26]hentriaconta-1 (28),2,5 (31),19,25 (29),26-hexaen-7-yl]-2-(4-pyridyl)cyclopropanecarboxamide]: the 50% inhibitory concentration (IC50) in assay [1] stood at 6.4 nM; in assay [2], 4.9 nM; in assay [3] it was 20.5 nM; in assay [4] it was 7.6 nM; in the assay with AGS cells (KRAS G12D), 38.5 nM; in the assay with SW620 cells (KRAS G12V) it was 2 nM.
On to `CO[C@@H](C)c1ncc(N2CCN(C)CC2)cc1-c1c2c3cc(cc4c3n1CC(F)(F)C4)-c1csc(n1)C[C@H](NC(=O)[C@H]1C[C@@H]1C(F)F)C(=O)N1CCC[C@H](N1)C(=O)OCC(C)(C)C2` (atropisomer, axis not shown; (M)) [Example 31], for which the IC50 in assay [1] was 2.3 nM; in assay [2], 1.6 nM; in assay [3] it was 19.8 nM; in assay [4], 3.1 nM; with AGS cells (KRAS G12D) it was 21.8 nM; in the assay on SW620 cells (KRAS G12V) it was less than 0.6 nM.
As for `CO[C@@H](C)c1ncc(N2CCOCC2)cc1-c1c2c3cc(cc4c3n1CC(F)(F)C4)-c1csc(n1)C[C@H](NC(=O)[C@H]1C[C@@H]1c1ccccc1)C(=O)N1CCC[C@H](N1)C(=O)OCC(C)(C)C2` (atropisomer, axis not shown; (M)) [Example 79, (1S,2S)-N-[(7S,13S)-23,23-difluoro-(20M)-20-[2-[(1S)-1-methoxyethyl]-5-morpholino-3-pyridyl]-17,17-dimethyl-8,14-dioxo-15-oxa-4-thia-9,21,30,31-tetrazahexacyclo[23.3.1.1^2,5.1^9,13.0^19,27.0^21,26]hentriaconta-1 (28),2,5 (31),19,25 (29),26-hexaen-7-yl]-2-phenyl-cyclopropanecarboxamide], the half-inhibitory concentration (IC50) in assay [1] worked out at 1.6 nM; in assay [2], 1.4 nM; in assay [3] it was 16.2 nM; in assay [4], 13.2 nM; in the assay on AGS cells (KRAS G12D), 57 nM; with SW620 cells (KRAS G12V) it was 3.2 nM.
Regarding `CO[C@@H](C)c1ncc(N2CCN(C)CC2)cc1-c1c2c3cc(cc4c3n1CCC4)-c1csc(n1)C[C@H](NC(=O)[C@H]1C[C@@H]1c1ccccc1F)C(=O)N1CCC[C@H](N1)C(=O)OCC(C)(C)C2` [Example 29, (1S,2S)-2-(2-fluorophenyl)-N-[(7S,13S)-(20M)-20-[2-[(1S)-1-methoxyethyl]-5-(4-methylpiperazin-1-yl)-3-pyridyl]-17,17-dimethyl-8,14-dioxo-15-oxa-4-thia-9,21,30,31-tetrazahexacyclo[23.3.1.1^2,5.1^9,13.0^19,27.0^21,26]hentriaconta-1 (28),2,5 (31),19,25 (29),26-hexaen-7-yl]cyclopropanecarboxamide], the concentration for half-maximal inhibition (IC50) in assay [1] was less than 0.6 nM; in assay [2], less than 0.6 nM; in assay [3] it was 1.6 nM; in assay [4], 2.5 nM; in the assay with AGS cells (KRAS G12D), 11.4 nM; with SW620 cells (KRAS G12V), 0.8 nM.
